Results from the supplement of paper PMC10307832.

Key:
Assay in all cases: relative viability (nuclei count vs DMSO), 5 days (fraction); higher = more cells survive
Ibrutinib + Foretinib = compound: C=CC(=O)N1CCC[C@@H](n2nc(-c3ccc(Oc4ccccc4)cc3)c3c(N)ncnc32)C1 [Ibrutinib] + COc1cc2c(Oc3ccc(NC(=O)C4(C(=O)Nc5ccc(F)cc5)CC4)cc3F)ccnc2cc1OCCCN1CCOCC1 [Foretinib] (partner 0.25 µM)
Procedure, shortened: (§1)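 Lung cancer cell lines in 1536-well plates got either a single drug or a fixed anchor-drug dose together with five library-drug doses (not always all listed) in √10 steps, by pin tool, on the day after seeding. Nuclei were counted after 5 days, and relative viability is the treated-to-vehicle ratio of nuclei counts. Values are medians of duplicate plates.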

Ibrutinib + Phenformin = compound: C=CC(=O)N1CCC[C@@H](n2nc(-c3ccc(Oc4ccccc4)cc3)c3c(N)ncnc32)C1 [Ibrutinib] + N=C(N)NC(=N)NCCc1ccccc1 [Phenformin] (partner 250 µM)
Procedure, shortened: as §1

BMX-IN-1 + Phenformin = compound: C=CC(=O)Nc1cc(-n2c(=O)ccc3cnc4ccc(-c5ccc(NS(C)(=O)=O)cc5)cc4c32)ccc1C [BMX-IN-1] + N=C(N)NC(=N)NCCc1ccccc1 [Phenformin] (partner 250 µM)
Procedure, shortened: as §1

PAC-1 + Tozasertib = compound: C=CCc1cccc(/C=N/NC(=O)CN2CCN(Cc3ccccc3)CC2)c1O [PAC-1] + Cc1cc(Nc2cc(N3CCN(C)CC3)nc(Sc3ccc(NC(=O)C4CC4)cc3)n2)n[nH]1 [Tozasertib] (partner 0.1 µM)
Procedure, shortened: as §1

## SW 1573
Ibrutinib + Foretinib; first compound 0.005 µM
  relative viability: 0.816
Ibrutinib + Foretinib; first compound 0.01581 µM
  relative viability: 0.733
Ibrutinib + Foretinib; first compound 0.05 µM
  relative viability: 1.01
Ibrutinib + Foretinib; first compound 0.1581 µM
  relative viability: 0.844
Ibrutinib + Foretinib; first compound 0.5 µM
  relative viability: 0.879
Ibrutinib + Phenformin; first compound 0.005 µM
  relative viability: 0.317
Ibrutinib + Phenformin; first compound 0.01581 µM
  relative viability: 0.345
Ibrutinib + Phenformin; first compound 0.05 µM
  relative viability: 0.477
Ibrutinib + Phenformin; first compound 0.1581 µM
  relative viability: 0.406
Ibrutinib + Phenformin; first compound 0.5 µM
  relative viability: 0.423
BMX-IN-1 + Phenformin; first compound 0.02 µM
  relative viability: 0.383
BMX-IN-1 + Phenformin; first compound 0.2 µM
  relative viability: 0.446
BMX-IN-1 + Phenformin; first compound 0.6325 µM
  relative viability: 0.342
BMX-IN-1 + Phenformin; first compound 2 µM
  relative viability: 0.351
PAC-1 + Tozasertib; first compound 0.02 µM
  relative viability: 0.172
PAC-1 + Tozasertib; first compound 0.06325 µM
  relative viability: 0.184
PAC-1 + Tozasertib; first compound 0.2 µM
  relative viability: 0.255
PAC-1 + Tozasertib; first compound 2 µM
  relative viability: 0.148

## UMC-11
Ibrutinib + Foretinib; first compound 0.005 µM
  relative viability: 1.04
Ibrutinib + Foretinib; first compound 0.01581 µM
  relative viability: 1.03
Ibrutinib + Foretinib; first compound 0.05 µM
  relative viability: 1.04
Ibrutinib + Foretinib; first compound 0.1581 µM
  relative viability: 0.993
Ibrutinib + Foretinib; first compound 0.5 µM
  relative viability: 1.02
Ibrutinib + Phenformin; first compound 0.005 µM
  relative viability: 0.29
Ibrutinib + Phenformin; first compound 0.01581 µM
  relative viability: 0.312
Ibrutinib + Phenformin; first compound 0.05 µM
  relative viability: 0.316
Ibrutinib + Phenformin; first compound 0.1581 µM
  relative viability: 0.337
Ibrutinib + Phenformin; first compound 0.5 µM
  relative viability: 0.362
BMX-IN-1 + Phenformin; first compound 0.02 µM
  relative viability: 0.294
BMX-IN-1 + Phenformin; first compound 0.2 µM
  relative viability: 0.316
BMX-IN-1 + Phenformin; first compound 0.6325 µM
  relative viability: 0.356
BMX-IN-1 + Phenformin; first compound 2 µM
  relative viability: 0.367
PAC-1 + Tozasertib; first compound 0.02 µM
  relative viability: 0.204
PAC-1 + Tozasertib; first compound 0.06325 µM
  relative viability: 0.202
PAC-1 + Tozasertib; first compound 0.2 µM
  relative viability: 0.212
PAC-1 + Tozasertib; first compound 2 µM
  relative viability: 0.187
